Values quoted from earlier work as cited in patent US20190000794A1, “TRANSMUCOSAL CANNABINOID FORMULATION INCLUDING A CHITOSAN EXCIPEINT” (priority 2017, published 2019).

Conditions: oral consumption; first pass metabolism in the liver

## CCCCCc1cc(O)c2c(c1)OC(C)(C)[C@@H]1CCC(C)=C[C@@H]21 [THC, trans-Δ^9-tetrahydrocannabinol]
  fraction of THC consumed orally that is metabolized through first pass metabolism: up to 97%
